{
  "source": "paper PMC7591795",
  "about": "“Humulone Modulation of GABAA Receptors and Its Role in Hops Sleep-Promoting Activity” (Frontiers in Neuroscience, 2020)",
  "key": {"BALB/cAnNRj mice": {"test_system": "BALB/cAnNRj mice", "test": "Pentobarbital-induced sleep test"}, "[1]": {"target": "T1, recombinant α6β3δ GABAA receptors (Rattus norvegicus, UniProt P18506+P30191+P63079)", "T1 construct": "expressed in transfected cells; host or cells: HEK293 cells, transient CaPO4 transfection, pRK5 plasmids; cell membranes used", "T1 sequence (P30191 20-453)": "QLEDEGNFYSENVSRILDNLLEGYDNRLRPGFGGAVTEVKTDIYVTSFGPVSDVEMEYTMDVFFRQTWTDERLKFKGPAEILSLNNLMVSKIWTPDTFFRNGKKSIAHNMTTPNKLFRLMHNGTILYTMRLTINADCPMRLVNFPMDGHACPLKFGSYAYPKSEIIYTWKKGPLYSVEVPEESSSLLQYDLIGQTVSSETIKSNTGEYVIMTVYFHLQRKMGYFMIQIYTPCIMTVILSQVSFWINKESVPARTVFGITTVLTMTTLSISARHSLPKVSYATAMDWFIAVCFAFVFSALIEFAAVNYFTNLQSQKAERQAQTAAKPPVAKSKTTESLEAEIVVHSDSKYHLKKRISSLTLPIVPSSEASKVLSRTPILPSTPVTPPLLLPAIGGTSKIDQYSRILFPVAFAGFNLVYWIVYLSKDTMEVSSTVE", "T1 sequence (P63079 26-473)": "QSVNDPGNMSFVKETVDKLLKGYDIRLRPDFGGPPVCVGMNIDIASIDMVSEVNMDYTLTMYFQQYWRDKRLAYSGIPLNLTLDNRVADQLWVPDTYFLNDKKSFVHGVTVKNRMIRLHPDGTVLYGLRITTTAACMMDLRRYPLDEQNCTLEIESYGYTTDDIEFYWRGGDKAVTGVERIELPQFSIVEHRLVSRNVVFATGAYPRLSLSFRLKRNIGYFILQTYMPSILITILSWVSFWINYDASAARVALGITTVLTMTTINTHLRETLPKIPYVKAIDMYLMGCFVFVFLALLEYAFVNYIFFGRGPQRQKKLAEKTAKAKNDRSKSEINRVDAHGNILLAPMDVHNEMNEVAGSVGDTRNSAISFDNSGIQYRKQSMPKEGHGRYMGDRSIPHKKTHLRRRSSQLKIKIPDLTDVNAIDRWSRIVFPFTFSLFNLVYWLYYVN", "T1 sequence (P18506 25-449)": "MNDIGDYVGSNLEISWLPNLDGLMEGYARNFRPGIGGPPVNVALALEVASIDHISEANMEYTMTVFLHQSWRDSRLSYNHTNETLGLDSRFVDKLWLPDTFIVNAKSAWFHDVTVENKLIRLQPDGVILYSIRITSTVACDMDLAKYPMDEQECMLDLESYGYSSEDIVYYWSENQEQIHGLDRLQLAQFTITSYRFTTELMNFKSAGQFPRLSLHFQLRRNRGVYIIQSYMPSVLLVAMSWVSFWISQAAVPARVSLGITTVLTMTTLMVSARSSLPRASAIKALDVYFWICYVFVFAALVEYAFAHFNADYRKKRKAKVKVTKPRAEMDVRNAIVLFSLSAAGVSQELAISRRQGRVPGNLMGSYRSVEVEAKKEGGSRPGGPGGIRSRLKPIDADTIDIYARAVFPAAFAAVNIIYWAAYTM", "test": "[3H]EBOB binding assay, recombinant α6β3δ receptors in HEK293 cell membranes", "details": "GABA 3 μM", "method": "The cells were divided and plated on 150 mm culture dishes for binding assays and 12 mm coverslips in 24-well cell culture plates for electrophysiology 24 h before transfection.\nThe cells were transiently transfected with rat cDNAs encoding GABAA receptor subunits (α1, L08490; α6, L08495; β3, X15468; γ2S, L08497; δ, L08496) in pRK5 plasmids under the control of CMV promoter ([Uusi-Oukari et al., 2000]). The plasmids were used in 1:1 and 1:1:1 ratio for transfections containing α1β3γ2S, α6β3, α6β3γ2S, and α6β3δ receptor subtypes. […] (Supplementary Figure S1). For electrophysiology, K4® transfection system (Biontex, München, Germany) was used according to the manufacturer’s protocol to increase expression efficiency and cell viability. […] The medium was changed 24 h after transfection and all experiments were performed 48 h after transfection.\nThe protein concentrations of brain membranes were determined with the Bio-Rad Coomassie blue dye-based protein assay kit (Hercules, CA, United States) as per the manufacturer’s protocol. Transfected HEK293 cells were harvested 48 h after transfection using a detaching buffer (10 mM Tris-HCl, 0.15 M NaCl, 2 mM EDTA) and centrifuged at 20,000 g for 10 min at +4 °C. The resulting pellets were suspended in the assay buffer for binding assays.\nIn humulone concentration series with recombinant α6β3, α6β3γ2S, and α6β3δ receptors, HEK293 cell membranes were incubated in the same above conditions for 120 min with [^3H]EBOB (1 nM) and different concentrations of humulone (30 nM–30 μM) in the presence or absence of ethanol (30 mM). […] Picrotoxin (100 μM) was used to determine the non-specific binding in all assays.\nMembrane samples were filtered through Whatman GF/B glass fiber filters (Whatman International Ltd., Maidstone, United Kingdom) using a Brandel Cell Harvester (model M-24, Gaithersburg, MD, United States). The filters were rinsed three times with 5 mL of ice-cold 10 mM Tris-HCl, pH 7.4 buffer. Air-dried filters were immersed in 3 mL of Hidex AquaLight Beta scintillation liquid and radioactivity was determined in Hidex 600 SL liquid scintillation counter (Hidex, Turku, Finland)."}, "[2]": {"target": "T2, recombinant α1β3γ2 GABAA receptors (Rattus norvegicus, UniProt P18508+P62813+P63079)", "T2 construct": "expressed in transfected cells; host or cells: HEK293 cells, transient transfection (K4 transfection system), pRK5 plasmids; EGFP co-transfected from a separate pWPI plasmid", "T2 sequence (P62813 28-455)": "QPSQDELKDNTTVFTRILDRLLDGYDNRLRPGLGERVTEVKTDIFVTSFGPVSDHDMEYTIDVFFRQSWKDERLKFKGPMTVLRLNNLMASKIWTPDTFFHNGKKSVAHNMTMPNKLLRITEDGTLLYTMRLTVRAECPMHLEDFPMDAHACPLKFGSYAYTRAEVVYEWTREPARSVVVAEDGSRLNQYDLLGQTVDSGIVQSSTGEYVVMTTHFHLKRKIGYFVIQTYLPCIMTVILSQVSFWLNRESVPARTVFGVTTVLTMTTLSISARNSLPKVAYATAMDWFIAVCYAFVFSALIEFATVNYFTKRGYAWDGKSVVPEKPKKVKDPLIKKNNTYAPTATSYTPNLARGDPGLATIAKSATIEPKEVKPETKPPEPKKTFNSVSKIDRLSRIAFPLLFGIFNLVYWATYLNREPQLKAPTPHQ", "T2 sequence (P63079 26-473)": "as the sequence (P63079 26-473) above", "T2 sequence (P18508 39-466)": "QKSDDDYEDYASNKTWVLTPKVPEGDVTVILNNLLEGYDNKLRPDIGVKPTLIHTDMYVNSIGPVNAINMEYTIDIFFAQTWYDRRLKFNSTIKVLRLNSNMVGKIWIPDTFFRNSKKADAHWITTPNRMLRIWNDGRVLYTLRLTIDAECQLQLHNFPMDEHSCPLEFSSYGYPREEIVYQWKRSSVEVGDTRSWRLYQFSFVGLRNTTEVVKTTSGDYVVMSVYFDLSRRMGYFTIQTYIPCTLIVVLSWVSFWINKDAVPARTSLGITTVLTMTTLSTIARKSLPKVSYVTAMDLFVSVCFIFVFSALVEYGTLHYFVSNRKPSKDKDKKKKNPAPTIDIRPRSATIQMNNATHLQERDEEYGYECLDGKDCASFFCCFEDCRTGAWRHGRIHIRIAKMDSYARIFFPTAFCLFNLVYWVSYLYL", "test": "Whole-cell patch-clamp of GABA-induced currents in transfected HEK293 cells", "type": "cell-based", "details": "humulone 10 μM, GABA 1 μM, 1 min application, −60 mV, n = 8 cells", "method": "Human embryonic kidney (HEK) 293 cells (Sigma- Aldrich, St Louis, MO, United States) were maintained in Dulbecco’s modified Eagle’s medium supplemented with 10% fetal bovine serum (Gibco, Gaithersburg, MD; United States), 50 U/mL penicillin and 50 μg/mL streptomycin (Sigma-Aldrich, St Louis, MO, United States) under standard growth conditions at 37°C, 95% humidity and 5% CO2. The cells were divided and plated on 150 mm culture dishes for binding assays and 12 mm coverslips in 24-well cell culture plates for electrophysiology 24 h before transfection.\nThe cells were transiently transfected with rat cDNAs encoding GABAA receptor subunits (α1, L08490; α6, L08495; β3, X15468; γ2S, L08497; δ, L08496) in pRK5 plasmids under the control of CMV promoter ([Uusi-Oukari et al., 2000]). The plasmids were used in 1:1 and 1:1:1 ratio for transfections containing α1β3γ2S, α6β3, α6β3γ2S, and α6β3δ receptor subtypes. For radioligand binding, CaPO4 precipitation method was used essentially as described earlier ([Lüddens and Korpi, 1997]). […]\nThe cells were continuously perfused with external HEK-Krebs solution containing (in mM): 140 NaCl, 4.7 KCl, 1.2 MgCl2, 2.52 CaCl2, 11 glucose, and 5 HEPES, pH 7.4 adjusted with […]. […] The external solution and drug solutions were driven by gravity at the flow rate of 5 mL/min and the current responses were recorded at room temperature (20–22°C)."}, "[3]": {"details": "humulone 10 mg/kg i.p., pentobarbital sodium 35 mg/kg i.p."}},
  "data": [
    {"smiles": "CC(C)=CCC1=C(O)[C@@](O)(CC=C(C)C)C(=O)C(C(=O)CC(C)C)=C1O", "note": "[humulone]", "values": [
      {"measurement": "duration of sleep induced by pentobarbital", "setting": "BALB/cAnNRj mice; [3]", "value": "not observed"},
      {"measurement": "sleep latency induced by pentobarbital", "setting": "BALB/cAnNRj mice; [3]", "value": "not observed"},
      {"measurement": "duration of sleep induced by pentobarbital", "setting": "BALB/cAnNRj mice; humulone 20 mg/kg i.p., 45 min before pentobarbital sodium 35 mg/kg i.p., vs control, p < 0.001", "value": "prolonged"},
      {"measurement": "sleep latency induced by pentobarbital", "setting": "BALB/cAnNRj mice; humulone 20 mg/kg i.p., 45 min before pentobarbital sodium 35 mg/kg i.p., vs control, p < 0.01", "value": "significantly decreased"},
      {"measurement": "concentration at which potentiation of GABA-induced [3H]EBOB displacement was evident", "setting": "[1]; α6β3δ", "value": "≥ 1", "unit": "µM"},
      {"measurement": "increase in potency in α6β3δ compared to α6β3 receptors", "setting": "[1]; ratio of IC50 values", "value": 6.7, "unit": "fold"},
      {"measurement": "increase in potency in α6β3δ compared to α6β3γ2 receptors", "setting": "[1]; ratio of IC50 values", "value": 5.8, "unit": "fold"},
      {"measurement": "potentiation of GABA-induced peak current amplitude, normalized to 1 μM GABA alone", "setting": "[2]", "value": "158 ± 41", "unit": "%"}
    ]}
  ]
}
